Test results reported in patent publication US10738083B2, “Influenza virus neutralizing peptidomimetic compounds” (Janssen Vaccines & Prevention B.V., priority 2015, dated 2020).
*1 amine or outer side, *2 acyl side, *3 side chain or, on linkers, in order; H or OH if unused. Where a SMILES comes first, the peptide text is derived from it. Bridges are numbered along the chain shown (N, C = ends). [ ]: non-standard residue; d: D form. Phe(3,4-Cl2) = N[C@@H](Cc1ccc(Cl)c(Cl)c1)C(=O)O; X2 = O=C(CN(CC(=O)[*:2])CC(=O)[*:3])[*:1]; X1 = NCCC(=O)N[C@@H](CN[*:2])C(=O)[*:1]; Ala(cPent) = N[C@@H](CC1CCCC1)C(=O)O; Glutaryl = O=C(CCCC(=O)[*:2])[*:1]; hhPhe = N[C@@H](CCCc1ccccc1)C(=O)O; NMeL = CN[C@@H](CC(C)C)C(=O)O; Orn = NCCC[C@H](N)C(=O)O; βAla = NCCC(=O)O

What was measured:
[1] = molecular target: T1, H1 HA A/California/07/2009 (Influenza A virus, UniProt C3W5X2); assay: AlphaLISA binding competition, HA + stem-binder
Source text: (§1) Binding competition studies were designed to test compounds for competition with other well characterized HA binding proteins (including e.g. CR9114) with known epitopes on HA. The epitopes where either located at the stem of the HA (viral membrane proximal part of HA) or, for control purposes, at the head of HA (viral membrane distal part of HA). If competition was observed, it is assumed that both molecules bind to a similar or at least overlapping epitope at the surface of HA. Competition with a HA head- and stem-binder was interpreted as unspecific binding.
(§2) Hereto an AlphaLISA competition assay (Perkin Elmer) was established which relied on biotinylated full length and trimeric HA proteins (Protein Sciences, 10 μL, 0.5 nM final concentration in 50 μL) bound by HA-specific binders. The interaction between HA and the binder was detected after 1 h incubation at room temperature (RT) with two beads, a streptavidin donor bead recognizing HA (10 μL of 10 μg/mL) and an anti Fc bead (10 μg/mL) recognizing the IgGs used. If after an additional hour of incubation at RT the excited donor bead (680 nm) and acceptor bead are in close proximity, an energy transfer (singlet oxygen) can be measured as a luminescence signal of the acceptor bead (Perkin Elmer EnVision plate reader). The signal intensity in this homogeneous assay format is directly proportional to the binding strength (affinity/avidity) between both binding partners.

[2] = molecular target: H1 HA A/New Caledonia/20/1999 (Influenza A virus, UniProt Q6WG00); assay: AlphaLISA binding competition, HA + stem-binder
Source text: as §1, §2

[3] = molecular target: T1, H1 HA A/California/07/2009; assay: AlphaLISA binding competition, HA + head-binder (control)
Source text: as §1, §2

[4] = molecular target: HA A/California/07/09 (H1) (Influenza A virus, UniProt C3W5X2); assay: biochemical; assay type: binding; conditions: for koff: read-out: dissociation rate kd
[5] = molecular target: HA A/Vietnam/1194/04 (H5) (Influenza A virus, UniProt A5A5M5); assay: biochemical; assay type: binding; conditions: for koff: read-out: dissociation rate kd
H1 HA A/Brisbane/59/07 = H1 HA A/Brisbane/59/07 (Influenza A virus, UniProt D5F1Q8); assay: AlphaLISA binding competition, HA + stem-binder
Source text: as §1, §2

[6] = molecular target: HA A/New Caledonia/20/99 (H1) (Influenza A virus, UniProt Q6WG00); assay: biochemical; assay type: binding; conditions: for koff: read-out: dissociation rate kd

Q: Which results are given for `CC(=O)N[C@@H](CCCc1ccccc1)C(=O)N[C@H]1CCCNC(=O)CCNC(=O)[C@H](CO)NC(=O)[C@H](CC(C)C)NC(=O)[C@H](Cc2c[nH]c3ccccc23)NC(=O)[C@H](CCC(=O)O)NC(=O)[C@H](Cc2ccccc2)NC(=O)[C@H](Cc2ccc(O)cc2)NC(=O)[C@H](CCCCNC(=O)CCCC(=O)O)NC(=O)[C@H](CC(C)C)NC1=O` [CP141066] (Ac-[hhPhe][Orn]LK(Glutaryl)YFEWLS[βAla]; lactam 2-C)?
A: IC50 [1]: 245 nM; IC50 [2]: 186 nM; IC50 [3]: > 50100 nM

Q: How did the IC50 [1] turn out when `CC(=O)N[C@@H](CCCc1ccccc1)C(=O)N[C@H]1CCCNC(=O)CCNC(=O)[C@H](CO)NC(=O)[C@H](CC(C)C)NC(=O)[C@H](Cc2c[nH]c3ccccc23)NC(=O)[C@H](CCC(=O)O)NC(=O)[C@H](Cc2ccccc2)NC(=O)[C@H](Cc2ccc(O)cc2)NC(=O)[C@H](CCCNC(=N)N)NC(=O)[C@H](CC(C)C)NC1=O` [CP132070] (Ac-[hhPhe][Orn]LRYFEWLS[βAla]; lactam 2-C) was run?
A: 288 nM

Q: What about the IC50 [2] of the same compound?
A: 178 nM

Q: What about the IC50 [3] of the same compound?
A: > 50100 nM

Q: For `CC(=O)N[C@@H](CCCc1ccccc1)C(=O)N[C@H]1CCCNC(=O)CCNC(=O)[C@H](CO)NC(=O)[C@H](CC(C)C)NC(=O)[C@H](Cc2c[nH]c3ccccc23)NC(=O)[C@H](CCC(=O)O)NC(=O)[C@H](Cc2ccc(Cl)c(Cl)c2)NC(=O)[C@H](Cc2ccc(O)cc2)NC(=O)[C@H](CCC(=O)O)NC(=O)[C@H](CC(C)C)NC1=O` [CP141019] (Ac-[hhPhe][Orn]LEY[Phe(3,4-Cl2)]EWLS[βAla]; lactam 2-C), which Kd [4] is on record?
A: 17 nM

Q: And the koff [4]?
A: 0.182 s⁻¹

Q: What about the Kd [5] of the same compound?
A: 31.6 nM

Q: What about the koff [5] of the same compound?
A: 0.0533 s⁻¹

Q: And the IC50 (H1 HA A/Brisbane/59/07)?
A: 46.8 nM

Q: And the IC50 [1]?
A: 70.8 nM

Q: And the IC50 [2]?
A: 50.1 nM

Q: And the IC50 [3]?
A: > 50100 nM

Q: And the Kd [6]?
A: 17.8 nM

Q: What about the koff [6] of the same compound?
A: 0.0589 s⁻¹

Q: What does the source list for `CC(=O)N[C@@H](CCCc1ccccc1)C(=O)N[C@H]1CCCNC(=O)CCNC(=O)[C@H](CO)NC(=O)[C@H](CC(C)C)NC(=O)[C@H](Cc2c[nH]c3ccccc23)NC(=O)[C@H](CCC(=O)O)NC(=O)[C@H](Cc2ccccc2)NC(=O)[C@H](Cc2ccc(O)cc2)NC(=O)[C@H](CCC(=O)O)NC(=O)[C@H](CC(C)C)N(C)C1=O` [CP141037] (Ac-[hhPhe][Orn][NMeL]EYFEWLS[βAla]; lactam 2-C)?
A: Kd [4]: 61.7 nM; koff [4]: 0.184 s⁻¹; Kd [5]: 64.6 nM; koff [5]: 0.0845 s⁻¹; IC50 (H1 HA A/Brisbane/59/07): 87.1 nM; IC50 [1]: 204 nM; IC50 [2]: 81.3 nM; IC50 [3]: > 50100 nM; Kd [6]: 44.7 nM; koff [6]: 0.0753 s⁻¹

Q: Which IC50 (H1 HA A/Brisbane/59/07) does the source give for `CC(=O)N[C@@H](CCCc1ccccc1)C(=O)N[C@H]1CCCNC(=O)CCNC(=O)[C@H](CO)NC(=O)[C@H](CC(C)C)NC(=O)[C@H](Cc2c[nH]c3ccccc23)NC(=O)[C@H](CCC(=O)O)NC(=O)[C@H](Cc2ccccc2)NC(=O)[C@H](Cc2ccc(O)cc2)NC(=O)[C@H](CCC(=O)O)NC(=O)[C@H](CC2CCCC2)NC1=O` [CP141036] (Ac-[hhPhe][Orn][Ala(cPent)]EYFEWLS[βAla]; lactam 2-C) here?
A: 145 nM

Q: What about the IC50 [1] of the same compound?
A: 398 nM

Q: And the IC50 [2]?
A: 135 nM

Q: What about the IC50 [3] of the same compound?
A: > 50100 nM

Q: Which IC50 [1] does the source give for `CC(=O)N[C@@H](CCCNC(=N)N)C(=O)N[C@H]1CCCNC(=O)CN2CC(=O)NCCC[C@@H](C(N)=O)NC(=O)[C@H](CO)NC(=O)[C@H](CC(C)C)NC(=O)[C@H](Cc3c[nH]c4ccccc34)NC(=O)[C@H](CCC(=O)O)NC(=O)[C@H](Cc3ccccc3)NC(=O)[C@H](Cc3ccc(O)cc3)NC(=O)[C@H](CCCNC(=O)C2)NC(=O)[C@H](CC(C)C)NC1=O` [CP141032] (Ac-R[Orn]L[Orn]YFEWLS[Orn]-NH2; linker 2-4-11 via X2) here?
A: 9550 nM

Q: What about the IC50 [2] of the same compound?
A: 2240 nM

Q: What about the IC50 [3] of the same compound?
A: > 50100 nM

Q: What does the source list for `CC(=O)N[C@@H](CCCc1ccccc1)C(=O)N[C@H]1CCCNC(=O)[C@@H](NC(=O)CCN)CNC(=O)[C@H](CO)NC(=O)[C@H](CC(C)C)NC(=O)[C@H](Cc2c[nH]c3ccccc23)NC(=O)[C@H](CCC(=O)O)NC(=O)[C@H](Cc2ccccc2)NC(=O)[C@H](Cc2ccc(O)cc2)NC(=O)[C@H](CCC(=O)O)NC(=O)[C@H](CC(C)C)NC1=O` [CP141099] (Ac-[hhPhe][Orn]LEYFEWLS; linker 2-C via X1)?
A: Kd [4]: 26.3 nM; koff [4]: 0.252 s⁻¹; Kd [5]: 27.5 nM; koff [5]: 0.0652 s⁻¹; IC50 (H1 HA A/Brisbane/59/07): 67.6 nM; IC50 [1]: 58.9 nM; IC50 [2]: 27.5 nM; IC50 [3]: > 50100 nM; Kd [6]: 25.1 nM; koff [6]: 0.101 s⁻¹
